From US12227488B2, “Small molecule degraders of Helios and methods of use” (DANA-FARBER CANCER INSTITUTE, INC., priority 2018, dated 2025) come the findings set out here.

One test concerns the target T1, IKZF1 (Homo sapiens, UniProt Q13422).
T1 construct: expressed in transfected cells; host or cells: Flp-In 293
In words: Cellular degradation assay, eGFP-IKZF1Δ fusion with mCherry reporter in Flp-In 293 cells. In kind it is cell-based. Conditions: 5 h incubation, n=1. The essentials: (§1)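 Flp-In 293 cells stably expressing eGFP-tagged degron fusions with P2A-mCherry reporter were treated with compound titrations (0.5% DMSO) for 5 hours. Imaging quantified GFP-positive/mCherry-positive cell fraction per well; DC50 at 5 h from nonlinear variable-slope fit.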

For the next test, the target named is T2, CRBN and Helios (IKZF2) (Homo sapiens, UniProt Q96SW2+Q9UKS7).
T2 construct: His (N); Strep (N)
T2 sequence (Q96SW2 whole entry): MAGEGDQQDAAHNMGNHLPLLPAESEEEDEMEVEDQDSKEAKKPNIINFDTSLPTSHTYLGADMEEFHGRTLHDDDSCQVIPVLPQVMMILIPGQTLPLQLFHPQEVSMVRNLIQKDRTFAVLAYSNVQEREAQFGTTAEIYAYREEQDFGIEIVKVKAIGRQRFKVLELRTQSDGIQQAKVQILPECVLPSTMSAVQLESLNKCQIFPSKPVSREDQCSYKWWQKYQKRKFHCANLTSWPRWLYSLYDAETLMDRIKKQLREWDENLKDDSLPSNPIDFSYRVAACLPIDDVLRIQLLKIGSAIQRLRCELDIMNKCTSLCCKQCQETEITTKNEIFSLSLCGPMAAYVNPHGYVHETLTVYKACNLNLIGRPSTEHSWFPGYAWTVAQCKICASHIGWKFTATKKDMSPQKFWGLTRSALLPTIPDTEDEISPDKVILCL
T2 sequence (Q9UKS7 whole entry): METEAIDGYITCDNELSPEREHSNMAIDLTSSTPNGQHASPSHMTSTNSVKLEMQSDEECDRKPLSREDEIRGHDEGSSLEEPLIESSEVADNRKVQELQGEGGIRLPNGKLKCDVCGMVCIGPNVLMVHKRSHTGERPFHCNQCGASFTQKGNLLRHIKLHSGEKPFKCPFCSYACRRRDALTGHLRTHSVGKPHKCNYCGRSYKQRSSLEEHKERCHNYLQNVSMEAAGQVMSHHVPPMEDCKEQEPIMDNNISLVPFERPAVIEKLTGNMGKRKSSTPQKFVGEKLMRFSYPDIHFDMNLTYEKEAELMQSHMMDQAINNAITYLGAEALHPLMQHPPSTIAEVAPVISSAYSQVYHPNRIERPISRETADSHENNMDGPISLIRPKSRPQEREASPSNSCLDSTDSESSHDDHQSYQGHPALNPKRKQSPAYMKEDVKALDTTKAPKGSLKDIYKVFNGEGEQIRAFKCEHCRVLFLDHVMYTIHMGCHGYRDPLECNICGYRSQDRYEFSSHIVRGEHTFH
In words: TR-FRET dimerization assay (CRBN-IKZF2 ternary complex formation). Conditions: n=1. In kind it is binding. The essentials:
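BODIPY-labeled DDB1ΔB-CRBN and in vitro biotinylated IKZF2 were treated with increasing compound concentrations plus tracer Terbium-Streptavidin and incubated 15 min at rt. Recruitment was quantified as the 520/490 nm TR-FRET ratio; values are single measurements (n=1), each averaged from at least three technical replicates.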

The next test deals with T3, SALL4 ZNF1-2 (Homo sapiens, UniProt Q96SW2+Q9UJQ4).
T3 construct: IKZF1Δ, IKZF2Δ, GSPT1 and SALL4 ZnF1-2 were subcloned; expressed in transfected cells; host or cells: Flp-In 293
T3 sequence (Q9UJQ4 378-438 limits assumed): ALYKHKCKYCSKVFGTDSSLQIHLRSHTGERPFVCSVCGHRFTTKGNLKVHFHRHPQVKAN
T3 sequence (Q96SW2 whole entry): as the sequence (Q96SW2 whole entry) above
T3 sequence (Q16531 whole entry partner): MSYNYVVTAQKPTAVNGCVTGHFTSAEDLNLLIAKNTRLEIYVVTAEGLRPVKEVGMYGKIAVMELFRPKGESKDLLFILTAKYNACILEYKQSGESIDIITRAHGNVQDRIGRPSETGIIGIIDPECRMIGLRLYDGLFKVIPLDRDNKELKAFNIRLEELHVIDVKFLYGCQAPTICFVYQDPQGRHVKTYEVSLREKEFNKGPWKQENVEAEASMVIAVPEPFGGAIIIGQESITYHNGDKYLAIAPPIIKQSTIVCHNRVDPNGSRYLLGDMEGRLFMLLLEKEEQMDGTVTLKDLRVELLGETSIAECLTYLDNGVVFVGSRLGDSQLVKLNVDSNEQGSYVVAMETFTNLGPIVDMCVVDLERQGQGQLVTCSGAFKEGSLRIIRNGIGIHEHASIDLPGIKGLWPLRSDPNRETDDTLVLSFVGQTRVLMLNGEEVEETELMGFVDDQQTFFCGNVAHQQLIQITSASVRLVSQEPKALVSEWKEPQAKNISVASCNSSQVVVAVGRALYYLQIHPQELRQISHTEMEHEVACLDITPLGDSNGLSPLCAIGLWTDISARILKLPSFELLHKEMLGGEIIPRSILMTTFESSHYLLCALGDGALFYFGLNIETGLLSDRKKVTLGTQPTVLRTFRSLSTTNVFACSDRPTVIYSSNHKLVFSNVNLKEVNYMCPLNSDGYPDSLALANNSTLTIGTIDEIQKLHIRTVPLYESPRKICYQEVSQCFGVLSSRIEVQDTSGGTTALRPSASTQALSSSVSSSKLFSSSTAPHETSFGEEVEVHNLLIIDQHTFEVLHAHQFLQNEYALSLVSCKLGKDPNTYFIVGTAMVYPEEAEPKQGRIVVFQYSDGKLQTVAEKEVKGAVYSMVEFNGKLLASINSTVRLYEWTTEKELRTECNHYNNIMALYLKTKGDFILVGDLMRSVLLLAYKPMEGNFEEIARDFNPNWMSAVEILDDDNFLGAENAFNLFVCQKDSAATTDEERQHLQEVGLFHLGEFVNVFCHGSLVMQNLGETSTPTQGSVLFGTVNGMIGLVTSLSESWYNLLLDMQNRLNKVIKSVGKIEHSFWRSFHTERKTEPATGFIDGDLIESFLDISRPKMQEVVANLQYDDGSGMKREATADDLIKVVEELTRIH
In words: Cellular degradation assay, eGFP-SALL4 ZnF1-2 fusion with mCherry reporter in Flp-In 293 cells. In kind it is cell-based. Conditions: 5 h incubation, n=1. The essentials: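 Flp-In 293 cells stably expressing eGFP-SALL4 ZnF1-2 fusion plus mCherry reporter were treated with compound titrations (0.5% DMSO) for 5 hours. Imaging at 488/561 nm gave, per well, the fraction of GFP-positive among mCherry-positive cells.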

For another test, the system named is IKZF2. In words: Cellular degradation assay, eGFP-IKZF2Δ fusion with mCherry reporter in Flp-In 293 cells. The format is cell-based. The following applies: 5 h incubation, n=1. The essentials: as §1
The target of the next test is GSPT1 (Homo sapiens, UniProt P15170+Q96SW2). In words: Cellular degradation assay, eGFP-GSPT1 fusion with mCherry reporter in Flp-In 293 cells. The format is cell-based. Details: expressed in transfected cells; host or cells: Flp-In 293. Conditions: 5 h incubation, n=1. In short, it runs like this: as §1
GSPT1, sequence (P15170 whole entry, the tested form may be a part): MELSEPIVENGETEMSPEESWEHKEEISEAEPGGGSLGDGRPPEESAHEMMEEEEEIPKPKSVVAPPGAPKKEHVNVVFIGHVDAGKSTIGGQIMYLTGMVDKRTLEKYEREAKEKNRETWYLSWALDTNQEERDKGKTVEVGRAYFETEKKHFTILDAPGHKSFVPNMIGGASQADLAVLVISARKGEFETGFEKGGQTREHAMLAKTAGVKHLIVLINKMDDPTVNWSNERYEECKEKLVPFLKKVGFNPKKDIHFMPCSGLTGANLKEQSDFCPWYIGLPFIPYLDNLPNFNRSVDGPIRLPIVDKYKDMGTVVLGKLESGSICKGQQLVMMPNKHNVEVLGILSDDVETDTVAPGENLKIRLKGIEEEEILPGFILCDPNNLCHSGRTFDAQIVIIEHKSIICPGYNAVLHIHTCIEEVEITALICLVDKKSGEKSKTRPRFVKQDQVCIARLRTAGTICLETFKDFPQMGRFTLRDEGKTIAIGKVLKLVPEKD
GSPT1, sequence (Q96SW2 whole entry, the tested form may be a part): as the sequence (Q96SW2 whole entry) above
GSPT1, sequence (Q16531 whole entry partner, the tested form may be a part): as the sequence (Q16531 whole entry partner) above
Where [1] appears, read: compound concentration 2.00E−05.
Where [2] appears, read: compound concentration 2.00E−06.
Where [3] appears, read: compound concentration 2.00E−07.
[4] abbreviates: compound concentration 6.6667E−05.
Setting [5] is: compound concentration 6.6667E−06.
The mark [6] stands for this setting: compound concentration 6.6667E−07 (667 nM).

Structures are written as SMILES.

T1 sequence (Q13422 83-213 isoform Q13422-7 limits assumed): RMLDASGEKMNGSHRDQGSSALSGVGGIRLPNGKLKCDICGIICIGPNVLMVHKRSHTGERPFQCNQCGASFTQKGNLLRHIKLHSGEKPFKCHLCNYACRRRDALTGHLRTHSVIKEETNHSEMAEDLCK
T1 sequence (Q96SW2 whole entry partner): as the sequence (Q96SW2 whole entry) above
T1 sequence (Q16531 2-1140 partner limits assumed): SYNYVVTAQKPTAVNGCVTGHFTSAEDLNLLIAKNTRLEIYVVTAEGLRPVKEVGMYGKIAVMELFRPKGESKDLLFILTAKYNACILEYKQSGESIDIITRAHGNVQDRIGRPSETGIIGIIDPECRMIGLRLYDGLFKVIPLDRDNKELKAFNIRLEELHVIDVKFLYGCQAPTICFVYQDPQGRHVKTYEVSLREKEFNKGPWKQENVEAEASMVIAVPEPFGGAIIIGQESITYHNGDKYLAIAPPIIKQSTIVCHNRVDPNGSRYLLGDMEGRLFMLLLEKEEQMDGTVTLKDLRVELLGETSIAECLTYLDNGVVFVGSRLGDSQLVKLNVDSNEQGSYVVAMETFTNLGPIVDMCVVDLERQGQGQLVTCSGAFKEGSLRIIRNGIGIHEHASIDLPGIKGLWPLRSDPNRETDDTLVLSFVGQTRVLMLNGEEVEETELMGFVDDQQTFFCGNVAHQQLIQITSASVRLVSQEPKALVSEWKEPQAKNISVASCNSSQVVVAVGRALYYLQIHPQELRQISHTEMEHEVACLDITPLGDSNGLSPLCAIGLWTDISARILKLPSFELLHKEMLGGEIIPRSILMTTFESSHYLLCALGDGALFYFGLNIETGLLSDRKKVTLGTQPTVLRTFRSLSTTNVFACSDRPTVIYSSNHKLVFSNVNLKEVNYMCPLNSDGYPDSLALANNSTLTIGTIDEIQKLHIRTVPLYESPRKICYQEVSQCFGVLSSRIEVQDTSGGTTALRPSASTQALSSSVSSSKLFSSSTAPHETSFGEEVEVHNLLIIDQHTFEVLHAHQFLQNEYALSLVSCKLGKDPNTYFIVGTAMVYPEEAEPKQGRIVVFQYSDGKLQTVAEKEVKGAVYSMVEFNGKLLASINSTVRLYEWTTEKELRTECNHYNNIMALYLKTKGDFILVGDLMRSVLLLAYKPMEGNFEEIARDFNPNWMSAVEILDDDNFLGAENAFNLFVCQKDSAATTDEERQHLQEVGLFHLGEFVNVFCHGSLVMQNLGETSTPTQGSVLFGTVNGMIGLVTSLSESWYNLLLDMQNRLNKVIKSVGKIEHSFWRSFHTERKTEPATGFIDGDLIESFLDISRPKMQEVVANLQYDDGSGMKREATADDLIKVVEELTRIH

For `CCOC(=O)CNC1=CC(=O)N(C2CCC(=O)NC2=O)C1=O` (stereo not drawn) [Compound 16, Ethyl (1-(2,6-dioxopiperidin-3-yl)-2,5-dioxo-2,5-dihydro-1H-pyrrol-3-yl)glycinate], the “IKZF1 GFP/RFP Relative Abundance” value at IKZF1 (setting [1]) amounted to 1.070; on IKZF1 (setting [2]), 1.011; at IKZF1 (setting [3]), 1.053. Moreover, the “TR-FRET-IKZF2 (Normalized to CC-885)” value on CRBN and Helios (IKZF2) (setting [4]) is recorded as 0.032; at CRBN and Helios (IKZF2) (setting [5]), 0.028; at CRBN and Helios (IKZF2) (setting [6]), 0.018. In addition, the entries for the “SALL4 ZNF1-2 GFP/RFP Relative Abundance” value on SALL4 ZNF1-2 (setting [1]), at SALL4 ZNF1-2 (setting [2]) and on SALL4 ZNF1-2 (setting [3]) were 1.001, 1.007 and 1.013, respectively. Also, the results for the “IKZF2 GFP/RFP Relative Abundance” value in the test on IKZF2 (setting [1]), in the test on IKZF2 (setting [2]) and in the test with IKZF2 (setting [3]) were 0.987, 1.015 and 1.006, respectively. Moreover, the entries for the “GSPT1 GFP/RFP Relative Abundance” value on GSPT1 (setting [1]), at GSPT1 (setting [2]) and at GSPT1 (setting [3]) were 0.978, 0.876 and 1.006, respectively.
For `O=C(O)CCCNC1=CC(=O)N(C2CCC(=O)NC2=O)C1=O` (stereo not drawn) [Compound 21, 4-((1-(2,6-dioxopiperidin-3-yl)-2,5-dioxo-2,5-dihydro-1H-pyrrol-3-yl)amino)butanoic acid], the “IKZF1 GFP/RFP Relative Abundance” value at IKZF1 (setting [1]) is recorded as 0.842; on IKZF1 (setting [2]) it was 0.975; on IKZF1 (setting [3]) it was 0.998. Besides, the “TR-FRET-IKZF2 (Normalized to CC-885)” value at CRBN and Helios (IKZF2) (setting [4]) is listed as 0.047; on CRBN and Helios (IKZF2) (setting [5]), 0.019; at CRBN and Helios (IKZF2) (setting [6]) it was 0.012. The entries for the “SALL4 ZNF1-2 GFP/RFP Relative Abundance” value on SALL4 ZNF1-2 (setting [1]), at SALL4 ZNF1-2 (setting [2]) and on SALL4 ZNF1-2 (setting [3]) were 0.937, 0.921 and 0.957, respectively. The entries for the “IKZF2 GFP/RFP Relative Abundance” value in the test with IKZF2 (setting [1]), with IKZF2 (setting [2]) and in the test with IKZF2 (setting [3]) were 0.996, 0.951 and 0.946, respectively. Moreover, the “GSPT1 GFP/RFP Relative Abundance” value at GSPT1 (setting [1]) is listed as 0.693; at GSPT1 (setting [2]), 0.938; on GSPT1 (setting [3]), 0.909.
With `O=C1CCC(N2C(=O)C=C(Nc3ccc4cn[nH]c4c3)C2=O)C(=O)N1` (stereo not drawn) [Compound 32, 3-(3-((1H-indazol-6-yl)amino)-2,5-dioxo-2,5-dihydro-1H-pyrrol-1-yl)piperidine-2,6-dione], the “IKZF1 GFP/RFP Relative Abundance” value on IKZF1 (setting [1]) is 0.748; on IKZF1 (setting [2]), 0.795; on IKZF1 (setting [3]), 0.832. Moreover, the “TR-FRET-IKZF2 (Normalized to CC-885)” value is given as 0.274 at CRBN and Helios (IKZF2) (setting [4]); 0.213 at CRBN and Helios (IKZF2) (setting [5]); 0.210 on CRBN and Helios (IKZF2) (setting [6]). In addition, the “SALL4 ZNF1-2 GFP/RFP Relative Abundance” value at SALL4 ZNF1-2 (setting [1]) worked out at 1.008; on SALL4 ZNF1-2 (setting [2]), 0.889; at SALL4 ZNF1-2 (setting [3]) it was 0.901. Further, the “IKZF2 GFP/RFP Relative Abundance” value in the test with IKZF2 (setting [1]) came out at 1.008; with IKZF2 (setting [2]) it was 0.941; with IKZF2 (setting [3]), 0.958. In addition, the “GSPT1 GFP/RFP Relative Abundance” value was found to be 0.646 at GSPT1 (setting [1]), 0.855 at GSPT1 (setting [2]) and 0.970 at GSPT1 (setting [3]).
For `O=C1CCC(N2C(=O)C=C(Nc3cccc(-c4cc[nH]n4)c3)C2=O)C(=O)N1` (stereo not drawn) [Compound 31, 3-(3-((3-(1H-pyrazol-3-yl)phenyl)amino)-2,5-dioxo-2,5-dihydro-1H-pyrrol-1-yl)piperidine-2,6-dione], the “IKZF1 GFP/RFP Relative Abundance” value at IKZF1 (setting [1]) was found to be 0.254; on IKZF1 (setting [2]) it was 0.290; on IKZF1 (setting [3]) it was 0.399. The “TR-FRET-IKZF2 (Normalized to CC-885)” value is 0.628 at CRBN and Helios (IKZF2) (setting [4]); 0.521 at CRBN and Helios (IKZF2) (setting [5]); 0.434 on CRBN and Helios (IKZF2) (setting [6]). The “SALL4 ZNF1-2 GFP/RFP Relative Abundance” value is 0.755 at SALL4 ZNF1-2 (setting [1]), 0.626 at SALL4 ZNF1-2 (setting [2]) and 0.713 at SALL4 ZNF1-2 (setting [3]). Besides, the figures for the “IKZF2 GFP/RFP Relative Abundance” value in the test with IKZF2 (setting [1]), in the test with IKZF2 (setting [2]) and in the test on IKZF2 (setting [3]) were 0.494, 0.638 and 0.766, respectively. The “GSPT1 GFP/RFP Relative Abundance” value on GSPT1 (setting [1]) is on record as 0.666; on GSPT1 (setting [2]) it was 1.197; at GSPT1 (setting [3]) it was 1.240.
As for `Cc1ccc(NC2=CC(=O)N(C3CCC(=O)NC3=O)C2=O)cc1C` (stereo not drawn) [Compound 24, 3-(3-((3,4-dimethylphenyl)amino)-2,5-dioxo-2,5-dihydro-1H-pyrrol-1-yl)piperidine-2,6-dione], the “IKZF1 GFP/RFP Relative Abundance” value on IKZF1 (setting [1]) worked out at 0.236; at IKZF1 (setting [2]), 0.342; at IKZF1 (setting [3]), 0.369. Further, the “TR-FRET-IKZF2 (Normalized to CC-885)” value on CRBN and Helios (IKZF2) (setting [4]) turned out to be 0.391; on CRBN and Helios (IKZF2) (setting [5]) it was 0.344; on CRBN and Helios (IKZF2) (setting [6]), 0.282. In addition, the “SALL4 ZNF1-2 GFP/RFP Relative Abundance” value on SALL4 ZNF1-2 (setting [1]) is on record as 0.937; on SALL4 ZNF1-2 (setting [2]) it was 0.941; on SALL4 ZNF1-2 (setting [3]), 0.942. The “IKZF2 GFP/RFP Relative Abundance” value worked out at 0.959 in the test on IKZF2 (setting [1]), 0.954 in the test with IKZF2 (setting [2]) and 1.038 in the test on IKZF2 (setting [3]). Besides, the “GSPT1 GFP/RFP Relative Abundance” value on GSPT1 (setting [1]) is listed as 1.153; on GSPT1 (setting [2]) it was 1.221; on GSPT1 (setting [3]), 1.218.
In the case of `CN(C)C(=O)c1cccc(NC2=CC(=O)N(C3CCC(=O)NC3=O)C2=O)c1` (stereo not drawn) [Compound 33, 3-((1-(2,6-dioxopiperidin-3-yl)-2,5-dioxo-2,5-dihydro-1H-pyrrol-3-yl)amino)-N,N-dimethylbenzamide], the “IKZF1 GFP/RFP Relative Abundance” value at IKZF1 (setting [1]) came to 0.339; at IKZF1 (setting [2]), 0.413; at IKZF1 (setting [3]), 0.445. Moreover, the “TR-FRET-IKZF2 (Normalized to CC-885)” value at CRBN and Helios (IKZF2) (setting [4]) is given as 0.584; on CRBN and Helios (IKZF2) (setting [5]) it was 0.491; on CRBN and Helios (IKZF2) (setting [6]), 0.452. The figures for the “SALL4 ZNF1-2 GFP/RFP Relative Abundance” value at SALL4 ZNF1-2 (setting [1]), at SALL4 ZNF1-2 (setting [2]) and at SALL4 ZNF1-2 (setting [3]) were 0.783, 0.813 and 0.860, respectively. In addition, the results for the “IKZF2 GFP/RFP Relative Abundance” value with IKZF2 (setting [1]), with IKZF2 (setting [2]) and in the test on IKZF2 (setting [3]) were 0.372, 0.521 and 0.570, respectively. Moreover, the entries for the “GSPT1 GFP/RFP Relative Abundance” value at GSPT1 (setting [1]), on GSPT1 (setting [2]) and on GSPT1 (setting [3]) were 0.944, 0.952 and 0.956, respectively.
With `Cc1ccc(NC(=O)NCCCNC2=CC(=O)N(C3CCC(=O)NC3=O)C2=O)cc1Cl` (stereo not drawn) [Compound 47, 1-(3-chloro-4-methylphenyl)-3-(3-((1-(2,6-dioxopiperidin-3-yl)-2,5-dioxo-2,5-dihydro-1H-pyrrol-3-yl)amino)propyl)urea], the results for the “IKZF1 GFP/RFP Relative Abundance” value at IKZF1 (setting [1]), at IKZF1 (setting [2]) and on IKZF1 (setting [3]) were 0.312, 0.298 and 0.326, respectively. Moreover, the “TR-FRET-IKZF2 (Normalized to CC-885)” value is reported as 0.288 at CRBN and Helios (IKZF2) (setting [4]); 0.230 at CRBN and Helios (IKZF2) (setting [5]); 0.191 at CRBN and Helios (IKZF2) (setting [6]). Moreover, the “SALL4 ZNF1-2 GFP/RFP Relative Abundance” value on SALL4 ZNF1-2 (setting [1]) was 1.060; on SALL4 ZNF1-2 (setting [2]), 1.039; on SALL4 ZNF1-2 (setting [3]) it was 1.010. Also, the “IKZF2 GFP/RFP Relative Abundance” value with IKZF2 (setting [1]) was 1.019; in the test with IKZF2 (setting [2]), 1.051; in the test with IKZF2 (setting [3]) it was 0.995. Further, the “GSPT1 GFP/RFP Relative Abundance” value came out at 0.034 on GSPT1 (setting [1]), 0.041 on GSPT1 (setting [2]) and 0.036 at GSPT1 (setting [3]).
